Measurements as given in ChEMBL document CHEMBL6127090, “Further Probing the Properties of a Unique Sponge-derived Alkaloid Through the Isolation of a New (-)-(5E)-(8R)-(14Z)-Mycothiazole Analogue” (J Nat Prod, 2024).
Activity calls are given as the source filed them. The rule behind the calls is not given here.

Columns and labels:
[1] = test system: PANC-1; assay: Cytotoxicity against human PANC-1 cells incubated for 3 days by trypan blue assay; format: functional, cell-based; settings: PANC-1, 72 h
[2] = test system: HepG2; assay: Cytotoxicity against human HepG2 cells incubated for 3 days by trypan blue assay; format: functional, cell-based; settings: HepG2, 72 h
[3] = test system: Caenorhabditis elegans; assay: Reduction in oxygen consumption rate in Caenorhabditis elegans at 5 uM incubated for 24 hrs; format: functional, organism-based
[4] = test system: Caenorhabditis elegans; assay: Inhibition of mitochondrial electron transport chain in Caenorhabditis elegans assessed as increase in life span at 5 uM; format: functional, organism-based
[5] = test system: Caenorhabditis elegans; assay: Induction of mitochondrial morphology change in Caenorhabditis elegans at 5 uM incubated for 24 hrs; format: functional, organism-based
[6] = test system: Caenorhabditis elegans; assay: Activation of unfolded protein response in Caenorhabditis elegans mitochondria at 5 uM; format: functional, organism-based
[7] = Toxicity in iv dosed mouse assessed as maximum tolerated dose; format: organism-based; settings: in vivo

| Compound | IC50 [1] [nM] | IC50 [2] [nM] | Activity [3] | Activity [4] | Activity [5] | Activity [6] | MTD [7] [mg/kg] |
| --- | --- | --- | --- | --- | --- | --- | --- |
| C=CC/C=C\Cc1csc(C(C)(C)[C@H](O)C/C=C/C(=C)CCNC(=O)OC)n1 | 112 | 115 | Active | Active | inactive | inactive | – |
| C=CC/C=C\Cc1csc(C(C)(C)[C@H](O)C/C=C\C(=C)CCNC(=O)OC)n1 | – | – | Active | Active | inactive | inactive | – |
| C=CC/C=C\Cc1csc(C(C)(C)[C@H](C/C=C\C(=C)CCNC(=O)OC)OC(C)=O)n1 | – | – | Active | Active | inactive | inactive | 0.1 |
| C=CC/C=C\Cc1csc(C(C)(C)[C@@H](O)C/C=C\C(=C)CCNC(=O)OC)n1 | – | – | Active | Active | inactive | inactive | – |
